Measured values: patent US20230278972A1, “SUBSTITUTED HALOALKYL SULFONANILIDE HERBICIDES” (FMC Corporation, priority 2020, published 2023)

How the values were obtained:
Format in all cases: in vivo
[1] = test system: blackgrass (Alopecurus myosuroides); assay: Test A1 preemergence, blackgrass
Method in brief: (§1)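 Seeds were first planted into a blend of loam soil and sand and given a preemergence directed soil spray. In parallel, pots of the same soil were sown for postemergence application once plants reached 2 to 10 cm and the one- to two-leaf stage. Both used surfactant-containing non-phytotoxic solvent formulations.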

[2] = test system: wheat (Triticum aestivum); assay: Test A1 preemergence, wheat
Method in brief: as §1

[3] = test system: Foxtail, Giant (giant foxtail, Setaria faberi); assay: Test A1 postemergence, Foxtail, Giant; conditions: for Plant response rating, Foxtail, Giant: Postemergence; for Foxtail, Giant plant response rating: postemergence
Method in brief: (§2)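 Plants grown in pots of loam/sand mix; preemergence = soil-directed spray on seeded pots, postemergence = spray at 1–2 leaves, height 2–10 cm; test chemicals formulated in non-phytotoxic solvent with surfactant.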

[4] = test system: rice (Oryza sativa); assay: Test B1 flooded paddy test, rice; conditions: 250 g ai/ha, Flood, applied to paddy water, 2-leaf stage, visually evaluated after 10 to 14 days
Source text: A dash (-) response means no test result.

[5] = test system: wheat (Triticum aestivum); assay: Test A1 postemergence, wheat; conditions: for Plant response rating, Wheat: Postemergence; for Wheat plant response rating: postemergence
Method in brief: as §2

[6] = test system: corn (Zea mays); assay: Test A1 preemergence, corn
Method in brief: as §1

[7] = test system: soybean (Glycine max); assay: Test A1 postemergence, soybean; conditions: for Plant response rating, Soybean: Postemergence; for Soybean plant response rating: postemergence
Method in brief: as §2

[8] = 31 g ai/ha, 0 to 100 scale (0 no effect, 100 complete control)
[9] = 125 g ai/ha, 0 to 100 scale, 0 no effect, 100 complete control
[10] = 31 g ai/ha, 0 to 100 scale (0 no effect, 100 complete control), 10 days
[11] = 125 g ai/ha, 0 to 100 scale (0 no effect, 100 complete control), 10 days

SMILES	Plant response rating, Blackgrass [1, 8]	Plant response rating, Blackgrass [1, 9]	Plant response rating, Wheat [2, 8]	Plant response rating, Wheat [2, 9]	Plant response rating, Foxtail, Giant [3, 10]	Plant response rating, Foxtail, Giant ([3]; 125 g ai/ha, 0 to 100 scale)	Plant response rating, Rice (0 to 100 scale, 0 is no effect, 100 is complete control) [4]	Plant response rating, Wheat [5, 10]	Plant response rating, Wheat ([5]; 125 g ai/ha, 0 to 100 scale)	Plant response rating, Corn [6, 8]	Plant response rating, Corn [6, 9]	Plant response rating, Soybean [7, 10]	Plant response rating, Soybean ([7]; 125 g ai/ha, 0 to 100 scale)	Foxtail, Giant plant response rating [3, 8]	Plant response rating, Foxtail, Giant [3, 11]	Wheat plant response rating [5, 8]	Plant response rating, Wheat [5, 11]	Soybean plant response rating [7, 8]	Plant response rating, Soybean [7, 11]
CCC1ON=C(c2cc(N(COC(=O)C(C)(C)C)S(=O)(=O)C(F)(F)F)c(C)cc2C)C1CC (centres unmarked) [Compound 347]	10	30	0	20	20	30	25	0	40	0	0	40	50						
Cc1cc(C)c(N(COC(=O)C(C)(C)C)S(=O)(=O)C(F)(F)F)cc1N1CCC2(CCC(C)CC2)C1=O (centres unmarked) [Compound 401]	0	0	0	0			45			0	20			0	60	0	10	60	70
Cc1cc(C(F)(F)F)c(C2=NOC3CCCC23)cc1NS(=O)(=O)C(F)(F)F (centres unmarked) [Compound 306]	0	0	0	0	0	30	0	0	20	0	0	20	40						
Cc1c(NS(=O)(=O)C(F)(F)F)cc(C(=O)N2CCOCC2)c(C)c1C [Compound 289, 1,1,1-Trifluoro-N-[2,3,4-trimethyl-5-(4-morpholinylcarbonyl)phenyl]methanesulfonamide]	0	60	30	80	40	90	10	20	50	0	30	40	50						
Cc1c(C(=O)N2C[C@@H](C)O[C@H](C)C2)cc(N(COC(=O)C(C)(C)C)S(=O)(=O)C(F)(F)F)c(C)c1C (relative stereo) [Compound 373]	30	30	0	20		60	20		70	0	20		70	0		0		50	
Cc1cc(F)c(C2=NOC3CCCC23)cc1NS(=O)(=O)C(F)(F)F (centres unmarked) [Compound 310]	0	0	0	0	0	0	0	0	20	0	0	20	30						
COc1cc(C)c(C2=NOC3(CCCC3)C2)cc1NS(=O)(=O)C(F)(F)F [Compound 304]	0	40	0	20	0	50	0	0	20	0	0	20	50						
COc1cnn(-c2cc(NS(=O)(=O)C(F)(F)F)c(C)cc2C)c(=O)c1OC [Compound 282]	30	60	0	80	0	20	0	60	80	0	50	40	60						
Cc1cc(C)c(N(C(=O)OCC(C)C)S(=O)(=O)C(F)(F)F)cc1C1=NOC2CCCC12 (centres unmarked) [Compound 299]	0	30	0	70	0	30	0	30	70	0	0	40	50						
CCOC(=O)N(c1cc(C(=O)N2CCCCC2)c(C)c(C)c1C)S(=O)(=O)C(F)(F)F [Compound 330, Ethyl N-[(trifluoromethyl)sulfonyl]-N-[2,3,4-trimethyl-5-(1-piperidinylcarbonyl)phenyl]carbamate]	0	30	0	30	20	80	0	0	30	0	0	90	80						
Cc1c(NS(=O)(=O)C(F)(F)F)cc(C(=O)N2CCCCC2)c(C)c1C [Compound 326]	0	0	0	50	10	30	0	0	0	0	90	70	70						
Cc1c(NS(=O)(=O)C(F)(F)F)cc(C(=O)N2CCC(C)CC2)c(C)c1C [Compound 366]	0	50	0	10		80	10		20	0	10		60	30		0		50	
CCC1CC(c2cc(NS(=O)(=O)C(F)(F)F)c(C)cc2C)=NO1 (centres unmarked) [Compound 375]	20	50	0	100		10	15		70	0	70		60	0		0		30	
Cc1c(NS(=O)(=O)C(F)(F)F)cc(C(=O)N2CCC(Cl)CC2)c(C)c1C [Compound 356]	0	10	0	30	10	40	0	0	30	0	90	50	80						
CCc1cc(C)c(C2=NOC3(CCCC3)C2)cc1NS(=O)(=O)C(F)(F)F [Compound 311]	20	40	0	0	0	20	0	0	0	0	0	10	40						
Cc1cc(C)c(N2CCC3(CCC(C)CC3)C2=O)cc1NS(=O)(=O)C(F)(F)F (centres unmarked) [Compound 402]	70	80	30	50			0			0	80			0	20	0	0	60	80
Cc1c(C(=O)N2CCCCC2)cc(NS(=O)(=O)C(F)(F)F)c(Cl)c1F [Compound 333]	0	0	0	50	10	30	0	0	30	0	0	30	80						
